Test results from US20230098111A1, “COMPOSITIONS AND METHODS TO TREAT NEUROLOGICAL DISEASES” (University of Southern California, priority 2020, published 2023).
“Also recorded” adds a separate entry of the source.

Columns and labels:
[1] = tested on: Drosophila larvae expressing GR dipeptide repeats; test: NMJ degeneration in poly(GR) Drosophila ALS model; type: in vivo
Procedure: Apilimod (30 μM) was fed to control and larvae expressing 100× (A,C) or 36× (B,D) GR dipeptide repeats. […] Unpaired t-test. **p<0.01, ***p<0.001.
Testing the efficacy of PIKFYVE suppression in vivo. The fruit fly Drosophila is a powerful genetic system for studying the effects of ALS gene products on neuromuscular junction (NMJ) function. […] It was shown that overexpression of wild-type or mutant TDP-43, SOD1, or the C9ORF72 repeat expansion in Drosophila larvae causes neurodegeneration and an increase in the time required for larvae to right themselves after being turned on their dorsal side, reflecting a decrease in motor function (FIG. 30A-C). […] Overexpression of the C9ORF72 DPR poly(GR)(36 or 100 repeats) causes a dramatic reduction in synaptic arborization, active zone number, and synaptic strength at NMJs (FIG. 31A-D).

TDP-43 G298S iMNs = test: Survival of TARDBP ALS iMNs; type: cell-based, human; conditions: neurotrophic factor withdrawal; DMSO or 3 uM apilimod
Procedure: (§1) (A) Survival of control or SOD1 A4V iMNs with DMSO or 3 uM apilimod. (B) Survival of TDP-43 G298S iMNs with DMSO or 3 uM apilimod. (C) Survival of MAPT V337M or isogenic control iNs.
(§2) PIKFYVE inhibition rescues the survival of TARDBP ALS, SOD1 ALS, and MAPT FTD patient neurons. Since the accumulation of misfolded proteins is a common disease mechanism in all forms of ALS, FTD, and Alzheimer's disease, it was reasoned that inducing secretory autophagy might rescue neurodegeneration in diverse patients. iMNs were generated from ALS patients harboring mutations in TARDBP or SOD1 as well as NGN2-induced neurons (iNs) from MAPT^V337M FTD. […] 2 additional isogenic pairs of iPSC lines from MAPT FTD patients, 2 additional TARDBP ALS iPSC lines, and 2 additional SOD1 ALS iPSC lines were all obtained.

MAPT V337M iNs = test: Survival of MAPT FTD iNs; type: cell-based, human; conditions: DMSO or apilimod (3 uM in FIG. 28)
Procedure: (§3) (A) Survival of C9ORF72 iNs with DMSO or apilimod. Log-rank test, 100 iNs per group. […] Log-rank test, 100 iNs per group. […] Mean+/−s.e.m. Kruskal-Wallis Test.
as §1
Mutations in MAPT cause FTD with tau aggregates. To determine if iNs from FTD patients display neurodegenerative phenotypes, an established method to generate cortical neurons from iPSCs by forced expression of NGN2 was used. 3 FTD patient iPSC lines harboring a MAPTV337M mutation and their CRISPR-edited isogenic controls from a published cell bank were utilized. Neurons from MAPT-mutant iPSCs display increased phosphorylated and oligomeric tau, similar to post-mortem patient tissue (FIG. 18A). […] Thus, MAPT iNs display key features of FTD with tau pathology.
PIKFYVE inhibition rescues the survival of TARDBP ALS, SOD1 ALS, and MAPT FTD patient neurons. Since the accumulation of misfolded proteins is a common disease mechanism in all forms of ALS, FTD, and Alzheimer's disease, it was reasoned that inducing secretory autophagy might rescue neurodegeneration in diverse patients. iMNs were generated from ALS patients harboring mutations in TARDBP or SOD1 as well as NGN2-induced neurons (iNs) from MAPT^V337M FTD. […]

sporadic ALS iMNs = test: Survival of sporadic ALS iMNs
Text: (A) Survival of control (CTRL) and C9ORF72 ALS/FTD patient (C9-ALS) iMNs with a 12-hour pulse treatment of excess glutamate shown for each individual line separately. iMNs quantified from 3 independent iMN conversions per line. (B-D) Immunofluorescence analysis of total TDP-43 (B) and quantification of the ratio of nuclear to cytoplasmic TDP-43 in control, C9-ALS (C), or sporadic ALS (D) iMNs. MNs from 2 controls and 2 C9-ALS patients (C) or 4 sporadic ALS patients (D) were quantified. n=30 (controls), 30 (C9-ALS/FTD), or 36 (sporadic) iMNs per line per condition from 2 biologically independent iMN conversions of 2 control, 2 C9-ALS/FTD, or 4 sporadic ALS lines were quantified. Each gray circle represents a single iMN. Median±interquartile range. Unpaired Mann-Whitney test. Scale bars: 5 μm. Dotted lines outline the nucleus and cell body. (E) Survival of control and sporadic iMNs with glutamate treatment. iMNs quantified from 3 independent iMN conversions per line. For iMN survival experiments, significance was measured by 2-sided log-rank test using the entire survival time course.
(B) Survival of C9-ALS/FTD iMNs with DMSO or apilimod. (C) Survival of sporadic ALS induced motor neurons (iMNs) with DMSO or apilimod. (D) Survival of C9-ALS/FTD iMNs with a scrambled ASO or PIKFYVE ASOs, 100 iMNs per group. […] Unpaired t-test. iMN survival experiments analyzed by log-rank test. […]

SOD1 A4V iMNs = test: Survival of SOD1 ALS iMNs; type: cell-based, human; conditions: neurotrophic factor withdrawal; DMSO or 3 uM apilimod
Procedure: as §1, §2

TDP-43 = TDP-43 localization in C9ORF72 iNs; type: cell-based, human; conditions: DMSO or apilimod
Text: as §3

C9-FTD iNs = test: Exosome secretion from iNs; type: cell-based, human
Text: (A) […] of exosomes from apilimod-treated C9-FTD iNs. (B) Western blot of TSG101, TDP-43, and Neurofilament heavy chain levels in the exosome fraction secreted from control or C9-FTD iNs upon apilimod treatment. (C,D) Quantification of the exosome marker TSG101 (C) or TDP-43 (D) in the exosome fraction of control and C9-FTD iNs treated with DMSO, apilimod, or apilimod+GW4869. Kruskal-Wallis test for B, C. N=3 biological replicates per condition, one line per genotype. (E) Number of poly(GR)-GFP+ exosomes secreted from iNs expressing exogenous poly(GR)-GFP upon DMSO or apilimod treatment. N=4 biological replicates. Exosomes were labeled with CFSE-red dye to enable detection by FACS. Unpaired t-test.
To test this, exosome release from iNs upon PIKFYVE inhibition was examined. […] Thus, PIKFYVE inhibition induces the secretion of TDP-43 and C9ORF72 DPRs from iNs
PIKFYVE inhibition rescues neurodegeneration through secretory autophagy.

Optineurin (OPTN) = test: Optineurin in CSF of mice after intracerebroventricular apilimod; type: in vivo; conditions: intracerebroventricular injection into adult mice; mass spectrometry; apilimod vs vehicle
Procedure: (A) Mass spectrometry analysis of Optineurin (OPTN) levels in the cerebrospinal fluide (CSF) of mice 2 hours after direct intracerebroventral injection of a vehicle control or apilimod. n=3 mice per group. The ratio of Optineurin in the CSF of apilimod:vehicle-injected mice is shown. (B) Poly(GR)+ DPR punctae in wild-type or C9ORF72 mice treated with intracerebroventricular injection of apilimod for 48 hours. Mean+/−s.e.m. Data points are individual neurons taken across 3 mice per group. One-way ANOVA. […] Unpaired t-test. (D) Pikfyve qRT-PCR of whole brain. n=3 mice per group at postnatal day 7. Unpaired t-test. (E) Gait impairment scoring in wild-type (WT) and TDP-43 homozygous mice treated with a negative control (NC) ASO or Pikfyve ASO at postnatal day 1. Mean+/−s.e.m. Unpaired t-test at each time point between the negative control and Pikfyve ASO conditions for TDP-43 mice. A score of 0 indicates no phenotype and 4 indicates the most severe phenotype. (F) Vehicle or GW4869 were delivered by intraperitoneal injection every 48 h starting from day 6 in negative control and Pikfyve ASO-treated mice. Mean+/−s.e.m. One-way ANOVA at each time point between the four conditions. *p<0.05, **p<0.01, ***p<0.001, ****p<0.0001.
PIKFYVE inhibition rescues neurodegeneration in vivo. […]

[2] = apilimod 30 μM fed to larvae expressing poly(GR)
[3] = apilimod 30 μM fed to larvae expressing poly(GR), listed as Apilimod

## Cc1cccc(/C=N/Nc2cc(N3CCOCC3)nc(OCCc3ccccn3)n2)c1 [apilimod]
[1]; apilimod 30 μM
  NMJ degeneration: suppresses NMJ degeneration
[1]; [2]
  NMJ boutons: More active zones and NMJ boutons
  number of active zones at NMJ: More active zones
  synaptic strength (EPSP amplitude): enhanced synaptic strength
[1]; [3]
  number of active zones at NMJ: partially rescues
  synaptic strength (EPSP amplitude): partially rescues
TDP-43 G298S iMNs
  survival of TARDBP ALS iMNs: rescued the survival
MAPT V337M iNs
  survival of MAPT FTD iNs: potently rescued; also recorded: rescued the survival
Sporadic ALS iMNs
  sporadic ALS iMN survival: one of the most potent
SOD1 A4V iMNs
  survival of SOD1 ALS iMNs: rescued the survival
TDP-43
  TDP-43 mislocalization in C9ORF72 iNs: rescued TDP-43 mislocalization
C9-FTD iNs; electron microscopy and western blotting
  release of TSG101+ exosomes from iNs: increased release of TSG101+ exosomes
C9-FTD iNs; iNs expressing poly(GR)50-GFP, FACS of CFSE-labelled exosomes
  poly(GR)-GFP+ exosomes released from iNs: released significantly more poly(GR)-GFP+ exosomes
C9-FTD iNs; western blot of exosome fraction
  TDP-43 in exosomes from C9ORF72 FTD iNs: contained high levels of TDP-43
Optineurin (OPTN)
  increase in CSF OPTN levels: 18 fold
